The target in this experiment is T1, Dimer of Gag-Pol polyprotein [489-587] (Human immunodeficiency virus 1, UniProt P12497).
T1 construct: 489-587
The experiment in a line: Protease Inhibition Assay. To be noted: pH 5.5; 37 °C. As to the method: Protease activity was measured by continuous chromogenic assay. The chromogenic peptide His-Lys-Ala-Arg-Val-Leu- (p-NO2-Phe)-Glu-Ala-Nleu-Ser (Bachem) was used as a substrate. Reactions were followed by the decrease of absorbance at 300 nm measured by spectrophotometer. Experimental results were analyzed by the nonlinear regression analysis, using a mathematical model for tight binding inhibitors.
In general, Ki refers to the equilibrium dissociation constant of an inhibitor or competing ligand from its target. Low values mean higher affinity, high ones lower affinity. As to `NC(=O)C[C@H](NC(=O)c1ccc2ccccc2n1)C(=O)N[C@@H](Cc1ccccc1)[C@@H](O)C[C@@H](Cc1ccccc1)C(=O)NC(c1ccccc1)c1cc2ccccc2[nH]1` (stereo partly drawn) [2 -Benzyl-4-h ydrox y-5((N -2-quinaloyl-L-asparagyl)amidno)-6-phenylhexanoic Acid (a-(2-indolylbenzyl)amide], the inhibition constant (Ki) was 1280 nM.
`NC(=O)C[C@H](NC(=O)c1ccc2ccccc2n1)C(=O)N[C@@H](Cc1ccccc1)[C@@H](O)CCC(=O)NC(c1ccccc1)c1nc2ccccc2[nH]1` (stereo partly drawn) [4-Hydroxy-5-( (N-2-quinaloyl-L-asparagyl)amino)-6-phenylhexanoic Acid (a-(2-benzyimidazolyl)benzyl)amide] came in with a Ki of 480 nM.
Consider `Cc1cccc(C(NC(=O)CC[C@H](O)[C@H](Cc2ccccc2)NC(=O)[C@H](CC(N)=O)NC(=O)c2ccc3ccccc3n2)c2cc3ccccc3[nH]2)c1` (stereo partly drawn) [4-Hydroxy-5-((N-2-quinaloyl-L-asparagyl)amino)-6-phenylhexanoic Acid (a-(2-indolyl)-m-methylbenzyl)amide], for which the Ki is 39 nM.
As for `C[C@H](N)C(=O)N[C@@H](C)C(=O)N[C@@H](Cc1ccccc1)[C@@H](O)CCC(=O)NC(c1ccccc1)c1nc2ccccc2[nH]1` (stereo partly drawn) [5-(L-Alanyl-L-alanylamino)-4-hydroxy-phenylhexanoic Acid ((1H-BenzimiaazOl-2-yl)phenylmethyl)amide], the Ki was found to be 5370 nM.
The same measure for `NC(=O)C[C@H](NC(=O)c1ccc2ccccc2n1)C(=O)N[C@@H](Cc1ccccc1)[C@@H](O)CCC(=O)NC(c1cccc(C(F)(F)F)c1)c1cc2ccccc2[nH]1` (stereo partly drawn) [(2S)-N-[(2S,3S)-3-hydroxy-5-({1H-indol-2-yl[3-(trifluoromethyl)phenyl]methyl}carbamoyl)-1-phenylpentan-2-yl]-2-(quinolin-2-ylformamido)butanediamide]: 33 nM; for `NC(=O)C[C@H](NC(=O)c1ccc2ccccc2n1)C(=O)N[C@@H](Cc1ccccc1)[C@@H](O)CCC(=O)NC(c1ccccc1)c1cc2ccccc2[nH]1` (stereo partly drawn) [(2S)-N-[(2S,3S)-3-hydroxy-5-{[1H-indol-2-yl(phenyl)methyl]carbamoyl}-1-phenylpentan-2-yl]-2-(quinolin-2-ylformamido)butanediamide]: 43 nM; for `NC(=O)C[C@H](NC(=O)c1ccc2ccccc2n1)C(=O)N[C@@H](Cc1ccccc1)[C@@H](O)CCC(=O)NC(c1cc2ccccc2[nH]1)C1CCCCC1` (stereo partly drawn) [(2S)-N-[(2S,3S)-5-{[cyclohexyl(1H-indol-2-yl)methyl]carbamoyl}-3-hydroxy-1-phenylpentan-2-yl]-2-(quinolin-2-ylformamido)butanediamide]: 180 nM.
The same measure for `COC(=O)[C@@H](NC(=O)[C@@H](NC(=O)CC[C@H](O)[C@H](Cc1ccccc1)NC(=O)[C@H](C)NC(=O)[C@H](C)N)C(C)C)C(C)C` [methyl (2S)-2-[(2S)-2-[(4S,5S)-5-[(2S)-2-[(2S)-2-aminopropanamido]propanamido]-4-hydroxy-6-phenylhexanamido]-3-methylbutanamido]-3-methylbutanoate]: 18 nM.

These data come from BindingDB's records for doi:10.1021/jm00041a005 (Agouron Pharmaceuticals, 1994).
